Species on record: Rattus norvegicus
Assay: DrugMatrix - Regimen: Daily Repeat
Type: toxicity, organism-based, Sprague-Dawley
Design: regimen Daily Repeat, gender Male, age 6-8 weeks
Conditions: in vivo, ip, 1 mg/kg, route intraperitoneal, dose level High, vehicle 100 % SALINE; for ABSOLUTE BASOPHIL / ABSOLUTE EOSINOPHIL / ABSOLUTE LYMPHOCYTE / ABSOLUTE MONOCYTE / ABSOLUTE SEGMENTED NEUTROPHIL / BASOPHIL / EOSINOPHIL / ERYTHROCYTE COUNT / HEMATOCRIT / HEMOGLOBIN / LEUKOCYTE COUNT / LYMPHOCYTE / MEAN CORPUSCULAR HEMOGLOBIN / MEAN CORPUSCULAR HEMOGLOBIN CONCENTRATION / MEAN CORPUSCULAR VOLUME / MONOCYTE / NEUTROPHIL / NUCLEATED RED BLOOD CELLS / PLATELET COUNT: tissue Blood; for ALANINE AMINOTRANSFERASE / ALKALINE PHOSPHATASE / ASPARTATE AMINOTRANSFERASE / BLOOD UREA NITROGEN / CARBON DIOXIDE / CHLORIDE / CHOLESTEROL / CREATININE / GLUCOSE / LACTATE DEHYDROGENASE / LIPASE / PHOSPHORUS / POTASSIUM / SODIUM / TOTAL BILIRUBIN / TOTAL PROTEIN / URIC ACID: tissue Plasma

`CC[C@H]1CN2CCc3cc(OC)c(OC)cc3[C@@H]2C[C@@H]1C[C@H]1NCCc2cc(OC)c(OC)cc21` [EMETINE] was tested, and the “ABSOLUTE BASOPHIL” value (72 h, time 3 day) was 0 CELLS/uL, the “ABSOLUTE EOSINOPHIL” value (72 h, time 3 day) was 235.33 CELLS/uL and the “ABSOLUTE LYMPHOCYTE” value (72 h, time 3 day) was 9173.33 CELLS/uL. For the same molecule, the “ABSOLUTE MONOCYTE” value (72 h, time 3 day) was 141.33 CELLS/uL, the “ABSOLUTE SEGMENTED NEUTROPHIL” value (72 h, time 3 day) was 916.67 CELLS/uL and the BASOPHIL (72 h, time 3 day) was 0%. The EOSINOPHIL (72 h, time 3 day) was 2.33%, the “ERYTHROCYTE COUNT” value (72 h, time 3 day) was 6.53 x10E6/uL and the HEMATOCRIT (72 h, time 3 day) was 38.67%. The HEMOGLOBIN (72 h, time 3 day) was 13.97 G/DL, the “LEUKOCYTE COUNT” value (72 h, time 3 day) was 10.47 x10E3/uL and the LYMPHOCYTE (72 h, time 3 day) was 88%. The “MEAN CORPUSCULAR HEMOGLOBIN” value (72 h, time 3 day) was 21.37 pg, the “MEAN CORPUSCULAR HEMOGLOBIN CONCENTRATION” value (72 h, time 3 day) was 36.1 G/DL and the “MEAN CORPUSCULAR VOLUME” value (72 h, time 3 day) was 59.2 fL. For the same molecule, the MONOCYTE (72 h, time 3 day) was 1.33%, the NEUTROPHIL (72 h, time 3 day) was 8.33% and the “NUCLEATED RED BLOOD CELLS” value (72 h, time 3 day) was 0 /100WBC. For the same molecule, the “PLATELET COUNT” value (72 h, time 3 day) was 1026.33 x10E3/uL, the “ALANINE AMINOTRANSFERASE” value (72 h, time 3 day) was 66.33 u/L and the “ALKALINE PHOSPHATASE” value (72 h, time 3 day) was 365 u/L. The “ASPARTATE AMINOTRANSFERASE” value (72 h, time 3 day) was 82.33 u/L, the “BLOOD UREA NITROGEN” value (72 h, time 3 day) was 17.67 mg/dL and the “CARBON DIOXIDE” value (72 h, time 3 day) was 34.67 mmol/L. For the same molecule, the CHLORIDE (72 h, time 3 day) was 100.33 MEQ/L, the CHOLESTEROL (72 h, time 3 day) was 63 mg/dL and the CREATININE (72 h, time 3 day) was 0.22 mg/dL. The GLUCOSE (72 h, time 3 day) was 180.33 mg/dL, the “LACTATE DEHYDROGENASE” value (72 h, time 3 day) was 120.33 u/L and the LIPASE (72 h, time 3 day) was 9 u/L. It also gave a PHOSPHORUS (72 h, time 3 day) of 11.83 mg/dL, a POTASSIUM (72 h, time 3 day) of 6.48 MEQ/L and an SODIUM (72 h, time 3 day) of 146.33 MEQ/L. The “TOTAL BILIRUBIN” value (72 h, time 3 day) was 0.2 mg/dL, the “TOTAL PROTEIN” value (72 h, time 3 day) was 6.27 G/DL and the “URIC ACID” value (72 h, time 3 day) was 1.73 mg/dL. For the same molecule, the “ABSOLUTE BASOPHIL” value (120 h, time 5 day) was 0 CELLS/uL, the “ABSOLUTE EOSINOPHIL” value (120 h, time 5 day) was 107.33 CELLS/uL and the “ABSOLUTE LYMPHOCYTE” value (120 h, time 5 day) was 9674.67 CELLS/uL. The “ABSOLUTE MONOCYTE” value (120 h, time 5 day) was 240.33 CELLS/uL, the “ABSOLUTE SEGMENTED NEUTROPHIL” value (120 h, time 5 day) was 1811 CELLS/uL and the BASOPHIL (120 h, time 5 day) was 0%. For the same molecule, the EOSINOPHIL (120 h, time 5 day) was 1%, the “ERYTHROCYTE COUNT” value (120 h, time 5 day) was 6.23 x10E6/uL and the HEMATOCRIT (120 h, time 5 day) was 37.3%. For the same molecule, the HEMOGLOBIN (120 h, time 5 day) was 13.67 G/DL, the “LEUKOCYTE COUNT” value (120 h, time 5 day) was 11.83 x10E3/uL and the LYMPHOCYTE (120 h, time 5 day) was 82.67%. For the same molecule, the “MEAN CORPUSCULAR HEMOGLOBIN” value (120 h, time 5 day) was 21.93 pg, the “MEAN CORPUSCULAR HEMOGLOBIN CONCENTRATION” value (120 h, time 5 day) was 36.67 G/DL and the “MEAN CORPUSCULAR VOLUME” value (120 h, time 5 day) was 59.8 fL. For the same molecule, the MONOCYTE (120 h, time 5 day) was 2%, the NEUTROPHIL (120 h, time 5 day) was 14.33% and the “NUCLEATED RED BLOOD CELLS” value (120 h, time 5 day) was 0 /100WBC. The “PLATELET COUNT” value (120 h, time 5 day) was 1167.33 x10E3/uL, the “ALANINE AMINOTRANSFERASE” value (120 h, time 5 day) was 57 u/L and the “ALKALINE PHOSPHATASE” value (120 h, time 5 day) was 325 u/L. The “ASPARTATE AMINOTRANSFERASE” value (120 h, time 5 day) was 102.33 u/L, the “BLOOD UREA NITROGEN” value (120 h, time 5 day) was 16.67 mg/dL and the “CARBON DIOXIDE” value (120 h, time 5 day) was 28.67 mmol/L. For the same molecule, the CHLORIDE (120 h, time 5 day) was 100.67 MEQ/L, the CHOLESTEROL (120 h, time 5 day) was 52.67 mg/dL and the CREATININE (120 h, time 5 day) was 0.23 mg/dL. The GLUCOSE (120 h, time 5 day) was 272.67 mg/dL, the “LACTATE DEHYDROGENASE” value (120 h, time 5 day) was 312 u/L and the LIPASE (120 h, time 5 day) was 8.67 u/L. For the same molecule, the PHOSPHORUS (120 h, time 5 day) was 14.97 mg/dL, the POTASSIUM (120 h, time 5 day) was 5.87 MEQ/L and the SODIUM (120 h, time 5 day) was 146.87 MEQ/L. For the same molecule, the “TOTAL BILIRUBIN” value (120 h, time 5 day) was 0.1 mg/dL, the “TOTAL PROTEIN” value (120 h, time 5 day) was 5.9 G/DL and the “URIC ACID” value (120 h, time 5 day) was 2.8 mg/dL. The “ABSOLUTE BASOPHIL” value ([…], time 14 day) was 0 CELLS/uL, the “ABSOLUTE EOSINOPHIL” value ([…], time 14 day) was 124.6 CELLS/uL and the “ABSOLUTE LYMPHOCYTE” value ([…], time 14 day) was 16602.4 CELLS/uL. The “ABSOLUTE MONOCYTE” value ([…], time 14 day) was 725.4 CELLS/uL, the “ABSOLUTE SEGMENTED NEUTROPHIL” value ([…], time 14 day) was 1987.6 CELLS/uL and the BASOPHIL ([…], time 14 day) was 0%. For the same molecule, the EOSINOPHIL ([…], time 14 day) was 0.6%, the “ERYTHROCYTE COUNT” value ([…], time 14 day) was 6.66 x10E6/uL and the HEMATOCRIT ([…], time 14 day) was 38.76%. For the same molecule, the HEMOGLOBIN ([…], time 14 day) was 14.18 G/DL, the “LEUKOCYTE COUNT” value ([…], time 14 day) was 19.44 x10E3/uL and the LYMPHOCYTE ([…], time 14 day) was 85.6%. For the same molecule, the “MEAN CORPUSCULAR HEMOGLOBIN” value ([…], time 14 day) was 21.32 pg, the “MEAN CORPUSCULAR HEMOGLOBIN CONCENTRATION” value ([…], time 14 day) was 36.58 G/DL and the “MEAN CORPUSCULAR VOLUME” value ([…], time 14 day) was 58.24 fL. For the same molecule, the MONOCYTE ([…], time 14 day) was 3.6%, the NEUTROPHIL ([…], time 14 day) was 10.2% and the “NUCLEATED RED BLOOD CELLS” value ([…], time 14 day) was 0 /100WBC. For the same molecule, the “PLATELET COUNT” value ([…], time 14 day) was 1306.2 x10E3/uL, the “ALANINE AMINOTRANSFERASE” value ([…], time 14 day) was 45.2 u/L and the “ALKALINE PHOSPHATASE” value ([…], time 14 day) was 253.2 u/L. The “ASPARTATE AMINOTRANSFERASE” value ([…], time 14 day) was 99 u/L, the “BLOOD UREA NITROGEN” value ([…], time 14 day) was 13.6 mg/dL and the “CARBON DIOXIDE” value ([…], time 14 day) was 31.8 mmol/L. It also gave a CHLORIDE ([…], time 14 day) of 101 MEQ/L, a CHOLESTEROL ([…], time 14 day) of 62.2 mg/dL and a CREATININE ([…], time 14 day) of 0.14 mg/dL. The GLUCOSE ([…], time 14 day) was 143.2 mg/dL, the “LACTATE DEHYDROGENASE” value ([…], time 14 day) was 172.6 u/L and the LIPASE ([…], time 14 day) was 8.8 u/L. It also gave a PHOSPHORUS ([…], time 14 day) of 11.54 mg/dL, a POTASSIUM ([…], time 14 day) of 6.76 MEQ/L and an SODIUM ([…], time 14 day) of 145.5 MEQ/L. The “TOTAL BILIRUBIN” value ([…], time 14 day) was 0.2 mg/dL, the “TOTAL PROTEIN” value ([…], time 14 day) was 5.82 G/DL and the “URIC ACID” value ([…], time 14 day) was 1.66 mg/dL.

Reference: ChEMBL document CHEMBL3885881, “DrugMatrix”
